Key:
Alternaria solani = experiment: In vitro test Alternaria solani (early blight of tomato/potato), radial growth on Potato Dextrose Agar; type: cell-based; conditions: 168 h, agar plate, 25° C., seven days, read-out: control compared to the untreated check
Procedure: (§1) Alternaria solani (early blight of tomato/potato): Compounds were dissolved in 0.3% DMSO and then added to Potato Dextrose Agar medium just prior to dispensing it into Petri dishes. 5 mL medium with compound in the desired concentration was dispensed into 60 mm sterile Petri-plates. After solidification each plate was seeded with 5 mm size mycelial disc taken form periphery of actively growing virulent culture plate. Plates were incubated in growth chambers at 25° C. temperature and 60% relative humidity for seven days and radial growth was measured.

Rhizoctonia solani = experiment: In vitro test Rhizoctonia solani (rice sheath blight/potato black scurf), radial growth on Potato Dextrose Agar; type: cell-based; conditions: 168 h, agar plate, 25° C., seven days, read-out: control compared to the untreated check
Procedure: Rhizoctonia solani (Rice Sheath Blight/Potato Black Scurf):
as §1, with “Compounds” for “Alternaria solani (early blight of tomato/potato): Compounds”

Pyricularia oryzae = experiment: microbe, parasite or virus in culture; type: cell-based; conditions: 168 h, read-out: control compared to the untreated check
Phakopsora pachyrhizi = experiment: Greenhouse Phakopsora pachyrhizi test in soybean, preventive; type: in vivo; conditions: preventive spray on soybean plants, inoculated one day after treatment with Phakopsora pachyrhizi, read-out: control compared to the untreated check
Procedure: Phakopsora pachyrhizi Test in Soybean
Compounds were dissolved in 2% DMSO/Acetone and then mixed with water to the calibrated spray volume of 50 mL and poured into the spray bottles for further applications.
To test the preventive activity of compounds, healthy young soybean plants raised in the greenhouse were sprayed with active compound preparation at the stated application rates inside the spray cabinets using hallowcone nozzles. One day after treatment, the plants were inoculated with spore suspension containing 2.1×10^6 Phakopsora pachyrhizi inoculum. The inoculated plants were then kept in greenhouse chamber at 25° C. temperature and 90% relative humidity for disease expression.
A visual assessment of compound's performance was carried out by rating the disease severity (0-100% scale) on treated plants on 3, 7, 10 and 15 days after application. Efficacy (% control) of the compounds was calculated by comparing the disease rating in the treatment with the one of the untreated control. The sprayed plants were also assessed for compound's plant compatibility by recording symptoms like necrosis, chlorosis and stunting.

Septoria lycopersici = experiment: In vitro test Septoria lycopersici (leaf spot of tomato), radial growth on Potato Dextrose Agar; type: cell-based; conditions: 168 h, agar plate, 25° C., seven days, read-out: control compared to the untreated check
Procedure: Septoria lycopersici (Leaf Spot of Tomato):
as §1, with “Compounds” for “Alternaria solani (early blight of tomato/potato): Compounds”, “70%” for “60%”

| SMILES | inhibition of growth at 300 ppm (Alternaria solani) | inhibition of growth at 300 ppm (Pyricularia oryzae) | other results |
| --- | --- | --- | --- |
| CCN(C)C=Nc1cc(C)c(N=S(=O)(c2ccccc2)C(C)C)cc1C (stereo not shown) [Compound 66] | > 70% |  | inhibition of growth at 300 ppm (Rhizoctonia solani): > 70% |
| CCN(C)C=Nc1cc(Br)c(Oc2cccc(S(C)(=O)=NCC3CCC3)c2)nc1C (stereo not shown) [Compound 69] |  | > 70% |  |
| CCN(C)C=Nc1cc(C)c(Oc2cccc(S(C)(=O)=NCC3CCC3)c2)cc1C (stereo not shown) [Compound 71] |  | > 70% |  |
| CCN(C)C=Nc1cc(C)c(S(=O)(CC(C)C)=NC(=O)c2ccc(F)c(Cl)c2)cc1Cl (stereo not shown) [Compound 72] |  | > 70% |  |
| CCN(C)C=Nc1cc(C)c(N=S(=O)(c2cccc(OC)c2)C(C)C)cc1C (stereo not shown) [Compound 75] |  | > 70% | pest or weed control at 500 ppm (Phakopsora pachyrhizi): > 70% |
| CCN(C)C=Nc1cc(Br)c(N=S(=O)(c2cccc(OC)c2)C(C)C)nc1C (stereo not shown) [Compound 78] | > 70% |  |  |
| CCN(C)C=Nc1cc(C)c(S(C)(=O)=NCc2cccc(OC(F)(F)F)c2)cc1Cl (stereo not shown) [Compound 92] | > 70% |  | inhibition of growth at 300 ppm (Rhizoctonia solani): > 70%; inhibition of growth at 300 ppm (Septoria lycopersici): > 70% |
| CCN(C)C=Nc1cc(C)c(S(=O)(CC(C)C)=NCc2ccc(F)c(Cl)c2)cc1Cl (stereo not shown) [Compound 100] |  | > 70% |  |
| CCN(C)C=Nc1cc(C)c(S(=O)(CC(C)C)=NCc2cccc(Cl)c2)cc1Cl (stereo not shown) [Compound 101] | > 70% |  | pest or weed control at 500 ppm (Phakopsora pachyrhizi): > 70% |
| CCN(C)C=Nc1cc(C)c(S(=O)(CC(C)C)=NCc2cccc(C(F)(F)F)c2)cc1Cl (stereo not shown) [Compound 102] | > 70% | > 70% |  |
| CCN(C)C=Nc1cc(Br)c(N=S(=O)(CC2CC2)c2cccc(F)c2)nc1C (stereo not shown) [Compound 106] |  | > 70% | pest or weed control at 500 ppm (Phakopsora pachyrhizi): > 70% |
| CCN(C)C=Nc1cc(C)c(S(=O)(CC(C)C)=Nc2ccc(N(C)C)cc2)cc1Cl (stereo not shown) [Compound 110] |  | > 70% |  |
| CCN(C)C=Nc1cc(C)c(S(=O)(CC(C)C)=Nc2ccc(OC)cc2)cc1Cl (stereo not shown) [Compound 111] |  | > 70% |  |
| CCN(C)C=Nc1cc(C)c(S(=O)(CC(C)C)=Nc2ccc(N3CCOCC3)cc2)cc1Cl (stereo not shown) [Compound 113] | > 70% |  | inhibition of growth at 300 ppm (Rhizoctonia solani): > 70%; inhibition of growth at 300 ppm (Septoria lycopersici): > 70% |
| CCN(C)C=Nc1cc(C)c(S(=O)(CC(C)C)=Nc2ccc(OC)c(OC)c2)cc1Cl (stereo not shown) [Compound 124] | > 70% |  | inhibition of growth at 300 ppm (Rhizoctonia solani): > 70%; inhibition of growth at 300 ppm (Septoria lycopersici): > 70% |
| CCN(C)C=Nc1cc(C)c(Oc2cccc(S(C)(=O)=NCC#N)c2)cc1C (stereo not shown) [Compound 125] | > 70% | > 70% |  |
| CCN(C)C=Nc1cc(C)c(Oc2ccc(S(C)(=O)=NC#N)cc2)cc1Cl (stereo not shown) [Compound 129] |  |  | pest or weed control at 500 ppm (Phakopsora pachyrhizi): > 70% |
| CCN=S(C)(=O)c1ccc(Cc2cc(C)c(N=CN(C)CC)cc2C)cc1 (stereo not shown) [Compound 130] | > 70% |  |  |
| CCN(C)C=Nc1cc(C)c(Cc2ccc(S(C)(=O)=NCC3CC3)cc2)cc1C (stereo not shown) [Compound 131] | > 70% |  |  |
| CCN(C)C=Nc1cc(C)c(Oc2ccc(S(C)(=O)=NC(F)(F)F)cc2)cc1Cl (stereo not shown) [Compound 134] | > 70% |  | inhibition of growth at 300 ppm (Rhizoctonia solani): > 70%; inhibition of growth at 300 ppm (Septoria lycopersici): > 70% |
| CCN(C)C=Nc1cc(C)c(Cc2ccccc2S(C)(=N)=O)cc1C (stereo not shown) [Compound 136] |  | > 70% |  |
| CCN(C)C=Nc1cc(C)c(Cc2ccccc2S(C)(=O)=NC)cc1C (stereo not shown) [Compound 137] |  | > 70% |  |
| CCN(C)C=Nc1cc(C)c(Cc2ccccc2S(C)(=O)=NCC2CC2)cc1C (stereo not shown) [Compound 138] |  | > 70% |  |
| CCN(C)C=Nc1cc(C)c(Nc2ccc(S(C)(=O)=NCC3CC3)cc2)cc1C (stereo not shown) [Compound 139] | > 70% |  | inhibition of growth at 300 ppm (Septoria lycopersici): > 70% |
| CCN(C)C=Nc1cc(C)c(Oc2cccc(S(=N)(=O)C(F)(F)F)c2)cc1C (stereo not shown) [Compound 148] |  | > 70% |  |
| CCN(C)C=Nc1cc(C)c(Oc2cccc(S(=O)(=NC)C(F)(F)F)c2)cc1C (stereo not shown) [Compound 151] |  | > 70% |  |
| CCN(C)C=Nc1cc(C)c(Oc2ccccc2S(=O)(=NCC2CC2)C(F)(F)F)cc1Cl (stereo not shown) [Compound 152] |  | > 70% | pest or weed control at 500 ppm (Phakopsora pachyrhizi): > 70% |

From patent US20200148635A1 (priority 2017, published 2020)
